Test [1] has as its target h-GABA-A α2β2γ1 receptor expressed in Xenopus laevis oocytes (Homo sapiens (Human), UniProt P47869+Q8N1C3). Briefly: Two-electrode voltage clamp electrophysiology in Xenopus oocytes expressing GABAA receptors. The format is cell-based. The following applies: for Efficacy (GABA)%: % modulation of GABA EC20 = 100*(Fold increase-1), compound at 30-fold Ki α2β2γ1; for Fold increase h-GABA-A α2β2γ1 oocyte @ 30-fold Ki: GABA EC20, test compound at approx. 30-fold its Ki α2β2γ1, at least 3 oocytes. In general terms: In two-electrode clamp one electrode senses voltage and the other passes current.

Test [2] has as its target human GABAA α2β2γ1 receptor (Homo sapiens (Human), UniProt P47869+Q8N1C3). The test is described as follows: Radioligand binding assay, competition for [3H]RO7239181, γ1-containing GABAA subtypes.
In test [3] the target is human GABAA α1β3γ2 receptor (Homo sapiens (Human), UniProt P14867+P18507). The test is described as follows: Radioligand binding assay, competition for [3H]Flumazenil, γ2-containing GABAA subtypes. To be noted: for γ2/γ1 Selectivity Ratio: Ki α1β3γ2 (nM)/Ki α2β2γ1 (nM); for LogSel: Log[Ki α1β3γ2 (nM)/Ki α2β2γ1 (nM)].
Setting [4] is: read-out: Ki h-GABAA α2β2γ1, membranes from HEK293F cells, [3H]RO7239181 20-30 nM, mean of two determinations.

SMILES strings stand for the structures. Read-outs that look alike come from different tables or passages of the source.

The source of these data is patent US20240190889A1, “NEW CYCLOPENTA-THIENO-DIAZEPINE DERIVATIVES AS GABA A GAMMA1 POSITIVE ALLOSTERIC MODULATORS” (Hoffmann-La Roche Inc., priority 2021, published 2024).

On to `C[C@@H]1N=C(c2c(F)cccc2F)c2c(sc3c2C[C@@H](C(F)F)C3)-n2c(C3CC3)nnc21` [Example 8, (7S,13R)-3-cyclopropyl-13-(difluoromethyl)-9-(2,6-difluorophenyl)-7-methyl-16-thia-2,4,5,8-tetrazatetracyclo [8.6.0.02,6.011,15]hexadeca-1(10),3,5,8,11(15)-pentaene], for which, in test [1], the “Efficacy (GABA)%” value stood at 37% and the “Fold increase h-GABA-A α2β2γ1 oocyte @ 30-fold Ki” value is 1.37. Affinity in test [2] was put at a Ki of 4.6 nM. Besides, in test [2] (setting [4]), the Ki (in general, a dissociation constant, usually derived from enzyme kinetics or from competition with a known ligand) came to 4.6 nM. Also, in test [3], the Ki stood at 455 nM, the “γ2/γ1 Selectivity Ratio” value was 99.2 and the LogSel is recorded as 2.00.
As for `C[C@@H]1N=C(c2c(F)cccc2F)c2c(sc3c2C[C@@H](C(F)F)C3)-n2nc(C(=O)N3CCS(=O)(=O)CC3)nc21` [Example 19, [(7S,13R)-13-(difluoromethyl)-9-(2,6-difluorophenyl)-7-methyl-16-thia-2,3,5,8-tetrazatetracyclo [8.6.0.02,6.011,15]hexadeca-1(10),3,5,8,11(15)-pentaen-4-yl]-(1,1-dioxo-1,4-thiazinan-4-yl)methanone], in test [1], the “Efficacy (GABA)%” value came out at 43% and the “Fold increase h-GABA-A α2β2γ1 oocyte @ 30-fold Ki” value was found to be 1.43. In test [2], this compound registered a Ki of 5.4 nM. For the same compound, in test [2] (setting [4]), the Ki turned out to be 5.4 nM. Also, the inhibition constant (Ki) in test [3] (HEK293F cell membranes, [3H]Flumazenil 1 nM, mean of two determinations, read-out: Ki h-GABAA α1β3γ2) came to 873 nM. Also, in test [3], the “γ2/γ1 Selectivity Ratio” value came out at 162.3 and the LogSel is 2.21.
For `Fc1cccc(F)c1C1=NCc2nnc(C3CC3)n2-c2sc3c(c21)C[C@@H](C(F)F)C3` [Example 7, (13R)-3-cyclopropyl-13-(difluoromethyl)-9-(2,6-difluorophenyl)-16-thia-2,4,5,8-tetrazatetracyclo [8.6.0.02,6.011,15]hexadeca-1(10),3,5,8,11(15)-pentaene], in test [1], the “Efficacy (GABA)%” value is given as 71% and the “Fold increase h-GABA-A α2β2γ1 oocyte @ 30-fold Ki” value was 1.71. In test [2], the Ki was 6.4 nM. The Ki in test [2] (setting [4]) was 6.4 nM. Moreover, in test [3], the Ki was found to be 304 nM, the “γ2/γ1 Selectivity Ratio” value is recorded as 47.3 and the LogSel is 1.67.
`Cc1nnc2n1-c1sc3c(c1C(c1c(F)cccc1F)=NC2)C[C@@H](C)C3` [Example 14, (13R)-9-(2,6-difluorophenyl)-3,13-dimethyl-16-thia-2,4,5,8-tetrazatetracyclo [8.6.0.02,6.011,15]hexadeca-1(10),3,5,8,11(15)-pentaene]: in test [1], the “Efficacy (GABA)%” value is given as 68% and the “Fold increase h-GABA-A α2β2γ1 oocyte @ 30-fold Ki” value came out at 1.68. Further, the affinity in test [2] corresponds to a Ki of 2.8 nM. The Ki in test [2] (setting [4]) worked out at 2.8 nM. Also, in test [3], the affinity, expressed as Ki, was 101 nM; the “γ2/γ1 Selectivity Ratio” value stood at 36.2; the LogSel is recorded as 1.56.
Regarding `Cc1nnc2n1-c1sc3c(c1C(c1c(F)cccc1F)=NC2)C[C@@H](C(F)F)C3` [Example 3, (13R)-13-(difluoromethyl)-9-(2,6-difluorophenyl)-3-methyl-16-thia-2,4,5,8-tetrazatetracyclo [8.6.0.02,6.011,15]hexadeca-1(10),3,5,8,11(15)-pentaene], in test [1], the “Efficacy (GABA)%” value is listed as 54% and the “Fold increase h-GABA-A α2β2γ1 oocyte @ 30-fold Ki” value was found to be 1.54. The same compound showed a Ki in test [2] of 2.9 nM. In addition, in test [2] (setting [4]), the Ki came out at 2.9 nM. Further, in test [3], the Ki amounted to 257 nM, the “γ2/γ1 Selectivity Ratio” value amounted to 88.4 and the LogSel worked out at 1.95.
Regarding `Cc1nnc2n1-c1sc3c(c1C(c1c(F)cccc1F)=N[C@H]2C)C[C@@H](C)C3` [Example 15, (7S,13R)-9-(2,6-difluorophenyl)-3,7,13-trimethyl-16-thia-2,4,5,8-tetrazatetracyclo [8.6.0.02,6.011,15]hexadeca-1(10),3,5,8,11(15)-pentaene], in test [1], the “Efficacy (GABA)%” value is recorded as 45% and the “Fold increase h-GABA-A α2β2γ1 oocyte @ 30-fold Ki” value was found to be 1.45. The compound also registered a Ki in test [2] of 6.3 nM. Further, in test [2] (setting [4]), the inhibition constant Ki is 6.3 nM. In test [3], the affinity corresponds to a Ki of 101 nM, the “γ2/γ1 Selectivity Ratio” value is 16.1 and the LogSel is 1.21.
Turning to `Cc1nnc2n1-c1sc3c(c1C(c1c(F)cccc1F)=N[C@H]2C)C[C@@H](C(F)(F)F)C3` [Example 13, (7S,13R)-9-(2,6-difluorophenyl)-3,7-dimethyl-13-(trifluoromethyl)-16-thia-2,4,5,8-tetrazatetracyclo [8.6.0.02,6.011,15]hexadeca-1(10),3,5,8,11(15)-pentaene], in test [1], the “Efficacy (GABA)%” value was 51% and the “Fold increase h-GABA-A α2β2γ1 oocyte @ 30-fold Ki” value is on record as 1.51. In addition, the Ki in test [2] was 16.2 nM. Moreover, the Ki in test [2] (setting [4]) amounted to 16.2 nM. Also, in test [3], the affinity, expressed as Ki, was 705 nM; the “γ2/γ1 Selectivity Ratio” value is 43.5; the LogSel is recorded as 1.64.
